Activity calls are given as the source filed them. No cut-off for these calls is given here.
Assays:
[1] = species on record: Rattus norvegicus; experiment: Inhibitory activity against peroxidation of rat cardiac membrane liposomes; format: functional
[2] = target: T1, Polyunsaturated fatty acid 5-lipoxygenase (Rattus norvegicus, UniProt P12527); experiment: Inhibition of 5-lipoxygenase from rat basophilic leukemia(RBL-1) cells; format: cell-based
T1 sequence (P12527 whole entry): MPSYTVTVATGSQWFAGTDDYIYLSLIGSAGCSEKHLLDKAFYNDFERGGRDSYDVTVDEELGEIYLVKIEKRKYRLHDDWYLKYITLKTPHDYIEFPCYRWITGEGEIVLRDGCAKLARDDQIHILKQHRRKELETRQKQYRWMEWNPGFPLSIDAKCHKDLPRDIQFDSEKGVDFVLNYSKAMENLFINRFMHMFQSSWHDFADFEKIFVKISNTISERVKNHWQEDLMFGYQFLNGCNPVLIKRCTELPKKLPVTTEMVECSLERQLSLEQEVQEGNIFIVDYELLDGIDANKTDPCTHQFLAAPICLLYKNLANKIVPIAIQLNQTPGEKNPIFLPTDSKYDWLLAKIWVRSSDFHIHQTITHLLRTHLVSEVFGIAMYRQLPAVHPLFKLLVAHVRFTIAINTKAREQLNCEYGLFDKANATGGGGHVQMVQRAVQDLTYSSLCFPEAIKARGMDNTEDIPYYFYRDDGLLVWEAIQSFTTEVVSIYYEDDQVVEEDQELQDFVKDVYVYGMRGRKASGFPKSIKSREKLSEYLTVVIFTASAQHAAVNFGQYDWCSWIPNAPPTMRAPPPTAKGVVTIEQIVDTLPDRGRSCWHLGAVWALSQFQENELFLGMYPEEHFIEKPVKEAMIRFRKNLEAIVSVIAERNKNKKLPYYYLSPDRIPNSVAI

[3] = species on record: Rattus norvegicus; experiment: Inhibitory activity against peroxidation of rat cardiac membrane liposomes at 1 uM concentration; format: functional; details: Microsome
[4] = system: Rattus norvegicus; experiment: In vivo inhibitory activity against acetic acid-induced colitis of rat at 10 mg/kg upon peroral administration; format: functional; details: route oral
[5] = system: Rattus norvegicus; experiment: In vivo inhibitory activity against acetic acid-induced colitis of rat at 1 mg/kg upon peroral administration; format: functional; details: route oral
[6] = species on record: Homo sapiens; experiment: Inhibitory activity against interleukin-1 production by LPS-stimulated human monocytes; IC50 range=4-8 uM; format: functional
[7] = system: Rattus norvegicus; experiment: Inhibition of neutrophil infiltration at 100 mg/kg in rats; format: functional
[8] = system: Rattus norvegicus; experiment: Inhibitory activity in rat colitis model at an oral dose of 10 mg/kg; IA means inactive; format: functional, organism-based; parameters: dose 10 mg/kg
[9] = species on record: Mus musculus; experiment: Myeloperoxidase activity was determined as a measure of neutrophil infiltration at a 0.1 mg dose in the AA treated mice; format: functional
[10] = species on record: Mus musculus; experiment: Myeloperoxidase activity was determined as a measure of neutrophil infiltration at the 0.4 mg dose in the TPA treated mice; format: functional
[11] = system: Mus musculus; experiment: Inhibition of the AA-induced edema in mouse ear inflammation test at 1 mg; format: functional
[12] = system: Mononuclear cell line; experiment: In vitro inhibitory activity against interleukin-1-beta biosynthesis by isolated human mononuclear cells at 10 uM; format: functional
[13] = species on record: Rattus norvegicus; experiment: Inhibition of LTB4 biosynthesis in ionophore-stimulated rat peritoneal macrophages; format: functional
[14] = species on record: Rattus norvegicus; experiment: Inhibition of PGE-2 biosynthesis in ionophore stimulated rat peritoneal macrophages; format: functional
[15] = system: Rattus norvegicus; experiment: Percent reduction of neutrophil accumulatiom with an minimum effective dose of 100 ug/kg when administered orally twice daily for two days before induction of acetic acid-induced colitis in the rat; format: functional
[16] = system: Rattus norvegicus; experiment: Percent reduction of neutrophil accumulatiom with an minimum effective dose of 1 mg/kg when administered orally twice daily for two days before induction of acetic acid-induced colitis in the rat; format: functional; details: route oral
[17] = system: Rattus norvegicus; experiment: Reduction of erythema at 1 mg/kg in acetic acid-induced colitis of the rat; format: functional
[18] = system: Rattus norvegicus; experiment: Reduction of necrosis at 1 mg/kg in acetic acid-induced colitis of the rat; format: functional
[19] = system: Mus musculus; experiment: Inhibition of the TPA-induced edema in mouse ear inflammation test at a topical dose of 0.4 mg; format: functional
[20] = species on record: Homo sapiens; experiment: Inhibition of LTB4 biosynthesis in human neutrophils

SMILES	IC50 [1] [µM]	IC50 [2] [µM]	inhibition [3] [%]	inhibition in vivo at 10 mg/kg [4] [%]	further results
CCCc1c(OCCCCCCCCCCc2cccc(O)c2O)ccc(C(=O)O)c1O	0.4				
CCCc1c(OCCc2cccc(O)c2O)ccc(C(=O)O)c1O		0.25	17		
CCCc1c(OCCCc2cccc(O)c2O)ccc(C(=O)O)c1O		0.17	35	54	
CCCc1cc(C(=O)O)ccc1OCCCCCCc1cccc(O)c1O	0.68				
CCCc1c(OCCCCc2cccc(O)c2O)ccc(C(=O)O)c1O	0.5			73	
CCCc1c(OCCCCCCCCc2cccc(O)c2O)ccc(C(=O)O)c1O	0.3	0.09		35	
CCCc1c(OCCCCCCc2cccc(O)c2O)ccc(C(=O)O)c1O	0.3			89	
O=C(O)c1ccc(OCCCCCCc2cccc(O)c2O)cc1O		0.3	33		inhibition in vivo at 1 mg/kg [5]: 95%
CC(Cc1ccc(O)c(O)c1)C(C)Cc1ccc(O)c(O)c1 (configuration not stated) [NORDIHYDROGUAIARETIC ACID]	0.1				IC50 [6]: 8 µM; inhibition in vivo at 100 mg/kg [7]: 70%; inhibition [8]: inactive
O=C(O)c1ccc(OCCCCCCc2cccc(O)c2O)cc1		0.2	9	89	
CCCc1c(OCCCCCc2cccc(O)c2O)ccc(C(=O)O)c1O					Inhibition [9]: 86%; Inhibition [10]: 88%; Inhibition [11]: 47%; inhibition at 10 µM [12]: 40%; IC50 [13]: 0.6 µM; IC50 [14]: 35 µM; inhibition in vivo at 1 mg/kg [5]: 88%; Reduction [15]: 38%; Reduction [16]: 88%; Reduction [17]: 55%; Reduction [18]: 77%; Inhibition [19]: 26%; IC50 [20]: 1 µM
